Patent publication US10179791B2, “Spiro-cyclic amine derivatives as S1P modulators” (AbbVie B.V., priority 2010, dated 2019)
Counter-ions that a name gives are not always drawn. Like-named read-outs stand apart in the source and are kept apart here.

Experiments:
Format in all cases: cell-based
human S1P5 receptor = human S1P5 receptor (Homo sapiens (Human), UniProt Q9H228); assay: In vitro functional activity (agonism) on human S1P5 receptors, CHO-human-S1P5-Aequorin assay; conditions: aequorin luminescence, CHO cells, 3 independent experiments
From the text: In Vitro Functional Activity (Agonism) on Human S1P5 Receptors
(§1) The CHO-human-S1P5-Aeqorin assay was bought from Euroscreen, Brussels (Euroscreen, Technical dossier, Human Lysophospholid S1P5 (Edg8) receptor, DNA clone and CHO AequoScreen™ recombinant cell-line, catalog no: ES-593-A, September 2006). Human-S1P5-Aequorin cells express mitochondrial targeted apo-Aequorin. Cells have to be loaded with coelanterazine, in order to reconstitute active Aequorin. After binding of agonists to the human S1P5 receptor the intracellular calcium concentration increases and binding of calcium to the apo-Aequorin/coelenterazine complex leads to an oxidation reaction of coelenterazine, which results in the production of apo-Aequorin, coelenteramide, CO2 and light ([…]max 469 nm). This luminescent response is dependent on the agonist concentration. Luminescence is measured using the MicroBeta Jet (Perkin Elmer). Agonistic effects of compounds are expressed as pEC50. Compounds were tested at a 10 points half log concentration range, and 3 independent experiments were performed in single point's measurements.

human S1P3 receptor = human S1P3 receptor (Homo sapiens (Human), UniProt Q99500); assay: In vitro functional activity (agonism) on human S1P3 receptors, CHO-human-S1P3-Aequorin assay; conditions: aequorin luminescence, CHO K1 cells, 3 independent experiments, read-out: S1P3 pEC50 (converted)
From the text: In Vitro Functional Activity (Agonism) on Human S1P3 Receptors
The CHO-human-S1P3-Aeqorin assay (CHO/Gα16/AEQ/h-S1P3) was established at Solvay Pharmaceuticals. The plasmid DNA coding for the S1P3 receptor (accession number in GenBank NM_005226 was purchased from UMR cDNA resource Centre (Rolla, Mo.). The pcDNA3.1/hS1P3 construct carrying the mitochondrially targeted apo-Aeqorin and Gal6 protein was transfected in CHO K1 cell-line.
as §1, with “Human-S1P3-Aequorin” for “The CHO-human-S1P5-Aeqorin assay was bought from Euroscreen, Brussels (Euroscreen, Technical dossier, Human Lysophospholid S1P5 (Edg8) receptor, DNA clone and CHO AequoScreen™ recombinant cell-line, catalog no: ES-593-A, September 2006). Human-S1P5-Aequorin”, “S1P3” for “S1P5”

human S1P1 = human S1P1 (Homo sapiens (Human), UniProt P21453); assay: In vitro functional activity (agonism) on human S1P1 receptors (method B), CHO-K1-human S1P1-cAMP assay
Protocol: In Vitro Functional Activity (Agonism) on Human S1P1 Receptors (Method B)
Recombinant CHO-K1 cells expressing human S1P1, grown to mid-log Phase in culture media without antibiotics, detached, centrifuged and re-suspended. For agonist testing cells are mixed with compound and Forskolin and incubated at room temperature. Cells are lyses and cAMP concentration are estimated, according to the manufacturer specification, With the HTRF kit from CIS-BIO International (cat no 62AM2PEB).
Compounds were tested at a 10 points half log concentration range duplicated in 1 experiment.

[1] = agonism, determined using method B (cAMP HTRF with Forskolin, CHO-K1 cells), read-out: S1P1^B pEC50 (converted)

Chain of human S1P1 (P21453 whole entry): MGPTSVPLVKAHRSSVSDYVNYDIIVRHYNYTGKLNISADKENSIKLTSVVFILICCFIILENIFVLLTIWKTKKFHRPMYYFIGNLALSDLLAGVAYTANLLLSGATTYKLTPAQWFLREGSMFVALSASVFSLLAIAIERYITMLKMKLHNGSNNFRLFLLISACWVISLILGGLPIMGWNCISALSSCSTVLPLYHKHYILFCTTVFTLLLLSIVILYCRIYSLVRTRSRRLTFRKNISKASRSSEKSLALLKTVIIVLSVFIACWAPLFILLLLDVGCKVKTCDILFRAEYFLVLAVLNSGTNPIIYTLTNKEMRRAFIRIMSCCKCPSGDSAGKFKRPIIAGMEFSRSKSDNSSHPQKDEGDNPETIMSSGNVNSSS
Chain of human S1P3 receptor (Q99500 whole entry): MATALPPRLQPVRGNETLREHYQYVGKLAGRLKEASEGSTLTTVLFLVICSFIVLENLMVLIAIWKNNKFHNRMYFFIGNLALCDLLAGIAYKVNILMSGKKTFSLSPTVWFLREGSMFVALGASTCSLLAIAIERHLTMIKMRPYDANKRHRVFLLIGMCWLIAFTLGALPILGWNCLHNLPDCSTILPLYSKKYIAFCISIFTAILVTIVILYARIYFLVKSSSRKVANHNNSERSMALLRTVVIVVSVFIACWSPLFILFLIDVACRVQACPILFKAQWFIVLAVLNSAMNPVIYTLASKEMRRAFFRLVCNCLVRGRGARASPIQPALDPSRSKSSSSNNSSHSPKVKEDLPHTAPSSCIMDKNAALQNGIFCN
Chain of human S1P5 receptor (Q9H228 whole entry): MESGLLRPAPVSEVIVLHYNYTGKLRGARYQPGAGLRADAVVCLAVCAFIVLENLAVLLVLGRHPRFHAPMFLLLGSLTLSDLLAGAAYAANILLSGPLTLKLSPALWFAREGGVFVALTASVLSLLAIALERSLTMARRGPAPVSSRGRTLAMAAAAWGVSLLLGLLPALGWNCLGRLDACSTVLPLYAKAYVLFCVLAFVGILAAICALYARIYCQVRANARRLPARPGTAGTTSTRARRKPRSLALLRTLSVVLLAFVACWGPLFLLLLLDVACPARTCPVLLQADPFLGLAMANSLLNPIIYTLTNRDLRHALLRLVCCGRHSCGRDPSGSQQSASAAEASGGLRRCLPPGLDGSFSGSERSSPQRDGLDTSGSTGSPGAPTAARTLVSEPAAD

Row | Structure (SMILES) | S1P5 pEC50 (human S1P5 receptor) | EC50 (human S1P3 receptor) [µM] | EC50 (human S1P1; [1]) [µM] | EC50 (human S1P1) [µM]
1 | O=C(O)CCN1CCC2(CC1)COc1cc(OC3CCc4cc(Cl)cc(Cl)c43)ccc12 (stereo not drawn) [Compound 79, 3-{6-[(5,7-Dichloro-2,3-dihydro-1H-inden-1-yl)oxy]-2H-spiro[1-benzofuran-3,4′-piperidine]-1′-yl}propanoic acid] | 7.2 | > 10 | 2 | 
2 | O=C(O)CCCN1CCC2(CC1)COc1cc(OCc3c(Cl)cccc3Cl)ccc12 [Compound 128, 4-{6-[(2,6-Dichlorophenyl)methoxy]-2H-spiro[1-benzofuran-3,4′-piperidine]-1′-yl}butanoic acid hydrochloride] | 7.6 | > 10 | > 3.16 | 
3 | O=C(O)CCN1CCC2(CC1)COc1cc(Oc3c(Cl)cccc3Cl)ccc12 [Compound 248, 3-[6-(2,6-Dichlorophenoxy)-2H-spiro[1-benzofuran-3,4′-piperidine]-1′-yl]propanoic acid hydrochloride] | 6.5 | > 10 | > 3.16 | 
4 | CC(CN1CCC2(CC1)COc1cc(OCc3c(Cl)cccc3Cl)ccc12)C(=O)O (stereo not drawn) [Compound 100, 3-{6-[(2,6-Dichlorophenyl)methoxy]-2H-spiro[1-benzofuran-3,4′-piperidine]-1′-yl}-2-methylpropanoic acid hydrochloride] | 7 | > 10 | > 3.16 | 
5 | CCc1ccc(Cl)c(C2CC2c2ccc3c(c2)OCC32CCN(CCC(=O)O)CC2)c1 (stereo not drawn) [Compound 182, 3-{6-[2-(2-Chloro-5-ethylphenyl)cyclopropyl]-2H-spiro[1-benzofuran-3,4′-piperidine]-1′-yl}propanoic acid hydrochloride] | 7.4 | > 10 | > 3.16 | 
6 | O=C(O)CCN1CCC2(CC1)COc1cc(OCc3c(F)cccc3Cl)ccc12 [Compound 38, 3-{6-[(2-Chloro-6-fluorphenyl)methoxy]-2H-spiro[1-benzofuran-3,4′-piperidine]-1′-yl}propanoic acid hydrochloride] | 6.7 | > 10 |  | > 3.16
7 | O=C(O)CCN1CCC2(CC1)COc1cc(C3CC3c3c(Cl)cccc3Cl)ccc12 (stereo not drawn) [Compound 178, 3-{6-[2-(2,6-Dichlorophenyl)cyclopropyl]-2H-spiro[1-benzo-furan-3,4′-piperidine]-1′-yl}propanoic acid hydrochloride] | 7.1 | 3.16 | > 3.16 | 
